Assay results taken from patent US20140350081A1, “INSECT G-COUPLED RECEPTORS USEFUL AS TARGETS FOR INSECTICIDES AND COMPOUNDS AND REAGENTS IDENTIFIED USING THE SAME” (priority 2011, published 2014).
Where two headings read alike, the source gives them in different places.

Key:
[1] = system: adult male Blatella germanica; test: Cockroach contact assay (topical application); assay type: in vivo; settings: 200 mM compound
Outline: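 Adult male German cockroaches (Blatella germanica) were dosed by topical application of compound to the ventral thorax, giving an effective dose of 50-80 μg depending on compound. Each test was a single-point dose run in triplicate in 24-well plates. Insects were incubated at 22° C. and scored for mortality, with commercial insecticides included as positive controls.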

AaDOP2 [2] = biological target: T1, AaDOP2 (Aedes aegypti, UniProt H6D5H2); test: LOPAC1280 antagonist screen in HEK-CRELuc-Aadop2 cells; assay type: cell-based; settings: 10 μM compound, 300 nM dopamine, quadruplicate
T1 sequence (H6D5H2 entry or part of it): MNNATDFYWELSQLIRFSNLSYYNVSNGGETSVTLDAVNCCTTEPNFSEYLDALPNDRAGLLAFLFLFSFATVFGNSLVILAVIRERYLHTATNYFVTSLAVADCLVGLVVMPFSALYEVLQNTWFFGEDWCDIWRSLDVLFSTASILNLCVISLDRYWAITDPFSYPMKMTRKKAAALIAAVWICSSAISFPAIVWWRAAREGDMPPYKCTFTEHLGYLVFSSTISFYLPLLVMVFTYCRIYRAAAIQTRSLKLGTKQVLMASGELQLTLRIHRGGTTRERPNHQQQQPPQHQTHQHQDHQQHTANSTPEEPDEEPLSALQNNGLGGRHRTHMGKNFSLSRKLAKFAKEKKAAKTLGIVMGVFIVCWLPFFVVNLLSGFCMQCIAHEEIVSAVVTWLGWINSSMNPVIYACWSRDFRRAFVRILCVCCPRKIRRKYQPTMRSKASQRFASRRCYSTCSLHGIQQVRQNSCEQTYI

[3] = system: adult Reticulitermes flavipes; test: Termite immersion assay; assay type: in vivo; settings: Reticulitermes flavipes, immersion, adult termite; for mortality at 100 µM: 100 µM compound (Fipronil 500 μM); for mortality at 100000 µM: 100 mM compound (Fipronil 500 μM)
Isdop2 [4] = biological target: T2, Isdop2 (Ixodes scapularis, UniProt A0ACM8DGL0); test: cAMP accumulation confirmation assay, cells stably expressing Isdop2; assay type: cell-based
T2 sequence (A0ACM8DGL0 entry or part of it): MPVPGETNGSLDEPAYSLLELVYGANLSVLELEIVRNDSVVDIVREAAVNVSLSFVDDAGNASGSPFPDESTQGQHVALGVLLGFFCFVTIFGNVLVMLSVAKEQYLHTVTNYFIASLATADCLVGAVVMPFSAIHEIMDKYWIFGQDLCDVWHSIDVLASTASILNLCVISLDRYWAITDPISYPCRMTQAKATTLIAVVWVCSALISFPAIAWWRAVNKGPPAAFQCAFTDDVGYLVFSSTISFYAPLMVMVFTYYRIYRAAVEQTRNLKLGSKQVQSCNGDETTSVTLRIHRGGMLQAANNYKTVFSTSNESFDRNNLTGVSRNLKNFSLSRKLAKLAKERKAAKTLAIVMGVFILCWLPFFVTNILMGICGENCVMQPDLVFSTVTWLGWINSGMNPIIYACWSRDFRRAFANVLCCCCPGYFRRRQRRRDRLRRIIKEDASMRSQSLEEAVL

Isdop2 [5] = biological target: T2, Isdop2; test: cell-based; settings: read-out: % Inhibition (of response to dopamine), Isdop2 screen
[6] = biological target: T3, human D1 dopamine receptor (hD1) (Homo sapiens, UniProt P21728); test: cAMP accumulation secondary assay, hD1-expressing cells; assay type: cell-based, H. sapiens
T3 construct: expressed in transfected cells
T3 sequence (P21728 whole entry): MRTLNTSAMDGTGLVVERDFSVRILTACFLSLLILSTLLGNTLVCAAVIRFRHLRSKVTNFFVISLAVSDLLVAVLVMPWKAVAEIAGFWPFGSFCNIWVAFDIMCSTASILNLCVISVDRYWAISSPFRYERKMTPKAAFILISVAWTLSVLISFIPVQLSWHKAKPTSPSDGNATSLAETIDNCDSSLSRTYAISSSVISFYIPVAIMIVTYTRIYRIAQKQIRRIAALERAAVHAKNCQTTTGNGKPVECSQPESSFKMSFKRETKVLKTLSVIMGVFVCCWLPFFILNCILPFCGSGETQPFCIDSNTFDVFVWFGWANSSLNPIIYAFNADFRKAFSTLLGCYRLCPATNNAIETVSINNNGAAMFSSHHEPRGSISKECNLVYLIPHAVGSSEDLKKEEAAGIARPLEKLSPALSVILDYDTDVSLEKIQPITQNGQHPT

AaDOP2 [7] = biological target: T1, AaDOP2; test: HTRF cAMP accumulation concentration response assay (Cisbio Dynamic 2); assay type: cell-based
AaDOP2 [8] = biological target: T1, AaDOP2
Ae. aegypti L3 larvae [9] = test: whole plant or invertebrate; settings: Aedes aegypti
[10] = system: adult male Blatella germanica; test: Cockroach assay of Table 16 (title contact assay, text feeding assay); assay type: in vivo; settings: 200 mM compound
Ae. aegypti larvae = test: whole plant or invertebrate; assay type: in vivo; settings: Aedes aegypti; 400 μM, L4 larvae, 24 hours post-treatment; read-out: average larval mortality
Description: Single dose-point and dose response in vivo mosquito bioassays were used to assess the toxicity of selected AaDop2 receptor antagonists identified in the chemical screen. Larvae of Ae. aegypti (Liverpool strain) were reared under standard laboratory conditions on a 12 hr day/night cycle at 75% RH and 28° C., and bioassays were conducted at room temperature (22-24° C.). Larvae were transferred from standard rearing trays into six-well tissue culture plates (Corning, Inc. Corning, N.Y.) using a small plastic pipette. Ten L4-stage larvae were included per well, each containing five ml of de-ionized water and an assigned drug concentration. Controls were conducted similarly but lacked a drug treatment. Bioassays employed a double-blind experimental design, and larval mortality was scored 24 hr following administration of drugs. Single dose-point assays were conducted using 400 μM drug and included three biological replicates each consisting of 100 larvae.

Isdop1 [11] = biological target: T4, Isdop1 (Ixodes scapularis, UniProt A0ACM8FJJ0); test: cAMP accumulation confirmation assay, cells stably expressing Isdop1; assay type: cell-based
Ae. aegypti L3 larvae [12] = test: Ae. aegypti L3 concentration response and time course assays; assay type: in vivo, Aedes aegypti; settings: Aedes aegypti
Description: Briefly, chemistries were diluted to appropriate concentration in water and added to the wells of 24-well plates containing 5 L3 stage Ae. aegypti larvae to achieve a final concentration of 400, 200, 100, 50 and 25 μM in 1 ml sterile RO water. Chemistries were tested in quadruplicate at each concentration. […] Results reported here represent a minimum of three independent CRC experiments (i.e., n=3).

Isdop2 [13] = biological target: T2, Isdop2; test: CRE-Luc reporter assay, HEK cells stably expressing Isdop2; assay type: cell-based
AaDOP1 [14] = biological target: T5, AaDOP1 (Aedes aegypti, UniProt H6D5H1); settings: single dose 10 μM, transient expression, n=3
T5 sequence (H6D5H1 entry or part of it): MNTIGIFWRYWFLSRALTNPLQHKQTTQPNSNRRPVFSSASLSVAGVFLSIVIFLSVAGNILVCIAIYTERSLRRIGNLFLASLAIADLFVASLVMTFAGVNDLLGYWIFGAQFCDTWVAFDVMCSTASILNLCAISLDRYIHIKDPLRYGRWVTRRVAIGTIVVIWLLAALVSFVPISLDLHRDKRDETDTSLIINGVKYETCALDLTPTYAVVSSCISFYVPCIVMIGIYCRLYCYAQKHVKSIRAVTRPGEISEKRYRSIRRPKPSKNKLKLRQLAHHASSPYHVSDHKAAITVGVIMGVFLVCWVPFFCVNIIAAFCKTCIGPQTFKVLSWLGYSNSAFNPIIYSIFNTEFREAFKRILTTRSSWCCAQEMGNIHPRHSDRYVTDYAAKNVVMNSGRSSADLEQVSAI

Isdop1 [15] = biological target: T4, Isdop1; test: CRE-Luc reporter assay, HEK cells stably expressing Isdop1; assay type: cell-based
AaDOP1 [16] = biological target: T5, AaDOP1; test: CRELuc reporter dose-response in HEK293 cells stably expressing AaDOP1; assay type: cell-based; settings: HEK293 cells stably expressing CRELuc reporter and AaDOP1
AaDOP2 [17] = biological target: T1, AaDOP2; settings: single dose 10 μM, transient expression, n=3
Ae. aegypti L3 larvae [18] = settings: 400 μM, three independent experiments
AaDOP2 [19] = biological target: T1, AaDOP2; test: cell-based
[20] = 48 h, read-out: Toxicity to Aedes aegypti larvae (mortality) 48 hours, 400 μM, L3 larvae, three independent experiments
[21] = 72 h, read-out: Toxicity to Aedes aegypti larvae (mortality) 72 hours, 400 μM, L3 larvae, three independent experiments

CN(C)CCC=C1c2ccccc2CCc2ccccc21 [Amitriptyline, (3-(10,11-dihydro-5H-dibenzo[a,d][7]annulen-5-ylidene)-N,N-dimethylpropan-1-amine)]
% Mortality 24 hrs [1]: 5% | % Mortality 48 hrs [1]: 20% | % Mortality 72 hrs [1]: 25% | % Mortality 120 hrs [1]: 30% | % Mortality 240 hrs [1]: 35% | % of the SCH23390 effect (AaDOP2 [2]): 90% | mortality at 100 µM ([3]; 24 h, read-out: % Mortality 24 hrs): 40% | mortality at 100000 µM ([3]; 48 h, read-out: % Mortality 48 hrs): 40% | mortality at 100000 µM ([3]; 72 h, read-out: % Mortality 72 hrs): 60% | mortality at 100000 µM ([3]; 120 h, read-out: % Mortality 120 hrs): 70% | mortality at 100 µM ([3]; 240 h, read-out: % Mortality 240 hrs): 70% | IC50 (Isdop2 [4]): 2900 nM | inhibition at 10 µM (Isdop2 [5]): 87% | IC50 ([6]; read-out: IC50 value (at 100 nM dopamine for hD1), 100 nM dopamine, direct cAMP accumulation): 470 ± 49 nM | IC50 (AaDOP2 [7]; AaDOP2 expressing cells in the presence of dopamine, No Inhibition = <10% inhibition at 3 μM test compound, read-out: IC50 ± S.E.M. (nM), HTRF cAMP assay): 6.5 ± 0.92 nM | IC50 (AaDOP2 [7]; Avg IC50 (μM), in vitro Concentration Response Curve assay, n = 2, relative to control antagonist Amitriptyline): 7 nM | Relative fold selectivity for AaDOP2 vs. hD1 (AaDOP2 [8]; ratio of IC50 values hD1/AaDOP2): 36 fold | IC50 (AaDOP2 [8]; read-out: Affinity (Aedesdop2), values equal the Table 3 IC50 values): 14 nM | mortality at 400 µM (Ae. aegypti L3 larvae [9]; 24 h, read-out: Toxicity to Aedes aegypti larvae (mortality) 24 hours, 400 μM, L3 larvae, three independent experiments): 63% | mortality at 400 µM (Ae. aegypti L3 larvae [9]; [20]): 87% | mortality at 400 µM (Ae. aegypti L3 larvae [9]; [21]): 93% | % Mortality 24 hrs [10]: 3% | % Mortality 48 hrs [10]: 20% | % Mortality 72 hrs [10]: 23% | % Mortality 120 hrs [10]: 30% | mortality at 400 µM (Ae. aegypti larvae): 93% | IC50 (Isdop1 [11]): 77000 nM | LC50 (Ae. aegypti L3 larvae [12]): 78000 nM

NCCc1ccc(O)c(O)c1 [Dopamine]
EC50 (Isdop2 [13]): ~145 nM | increase of intracellular cAMP, AaDOP1 (AaDOP1 [14]): 2.7±0.6 fold | EC50 (Isdop1 [15]): ~31 nM | EC50 (AaDOP1 [16]): 3.1 ± 1.1 nM | increase of intracellular cAMP, AaDOP2 (AaDOP2 [17]): 48±14 fold

CSc1ccc2c(c1)C(N1CCN(C)CC1)Cc1ccccc1S2 (centres unmarked) [Methiothepin, (1-methyl-4-(8-(methylthio)-10,11-dihydrodibenzo-[b,f]thiepin-10-yl)piperazines)]
% of the SCH23390 effect (AaDOP2 [2]): 99% | IC50 (Isdop2 [4]): 85 nM | inhibition at 10 µM (Isdop2 [5]): 100% | IC50 [6]: 80 ± 11 nM | Relative fold selectivity for AaDOP2 vs. hD1 (AaDOP2 [8]): 5.7 fold | Toxicity to Aedes aegypti larvae (mortality) 24 hours (Ae. aegypti L3 larvae [18]): 100% | IC50 (AaDOP2 [19]): 14 ± 5.1 nM | mortality at 400 µM (Ae. aegypti L3 larvae [9]; 0.5 h, read-out: percent mortality 0.5 hr, 400 uM, L3 larvae, value for this scoring time): 10% | mortality at 400 µM (Ae. aegypti L3 larvae [9]; 1 h, read-out: percent mortality 1 hr, 400 uM, L3 larvae, per scoring time): 0% | mortality at 400 µM (Ae. aegypti L3 larvae [9]; 2 h, read-out: percent mortality 2 hr, 400 uM, L3 larvae, per scoring time): 20% | mortality at 400 µM (Ae. aegypti L3 larvae [9]; 3 h, read-out: mortality within three hours, 400 μM, L3 larvae): > 70% | mortality at 400 µM (Ae. aegypti L3 larvae [9]; 3 h, read-out: percent mortality 3 hr, 400 uM, L3 larvae, per scoring time): 0% | mortality at 400 µM (Ae. aegypti L3 larvae [9]; 4 h, read-out: percent mortality 4 hr, 400 uM, L3 larvae, per scoring time): 0% | mortality at 400 µM (Ae. aegypti L3 larvae [9]; 24 h, read-out: percent mortality 24 hr, 400 uM, L3 larvae, per scoring time): 0% | mortality at 400 µM (Ae. aegypti L3 larvae [9]; [20]): 100% | mortality at 400 µM (Ae. aegypti L3 larvae [9]; 48 h, read-out: percent mortality 48 hr, 400 uM, L3 larvae, per scoring time): 0% | mortality at 400 µM (Ae. aegypti L3 larvae [9]; 72 h, read-out: Cumulative % Mortality (72 hrs), 400 uM, L3 larvae): 100% | mortality at 400 µM (Ae. aegypti L3 larvae [9]; [21]): 100% | mortality at 400 µM (Ae. aegypti L3 larvae [9]; 72 h, read-out: percent mortality 72 hr, 400 uM, L3 larvae, per scoring time): 0% | IC50 (Isdop1 [11]): 950 nM

Oc1ccc(C=Cc2cc(O)cc(O)c2)cc1 [Resveratrol]
% of the SCH23390 effect (AaDOP2 [2]): 89% | inhibition at 10 µM (Isdop2 [5]): 100% | IC50 (AaDOP2 [19]): ≥ 10000 nM
